Source: US10966911B2, “Melanin decomposition inhibitor” (KAO CORPORATION, priority 2016, dated 2021)

How the values were obtained:
[1] = test system: dopa oxidase activity of melanocytes; test: Dopa oxidase activity of melanocytes in keratinocyte-melanocyte co-culture system; type: cell-based, human; details: melanocytes (lightly and darkly), proguanil 0.1-1000 μM, 4 days, versus DMSO, FIGS. 16A, 16B
Method: Melanocytes (lightly and darkly) were seeded in 96-well plates at a cell density of 2×10^4 cells/well (100 μL/well). […] Two days later, proguanil was added at a final concentration of 0.1, 0.3, 1, 3, 10, 30, 100, 300 or 1000 μM and culture was performed at 37° C. in 5 vol % CO2 atmospheric conditions for 4 days. As a control, the same amount of DMSO was added. After completion of culture, the whole medium was replaced (100 μL/well), a reagent, alamarBlue (Bio-Rad AbD Serotec Limited) was added so as to obtain a ratio of 10 μL/well. Incubation was carried out at 37° C. in 5 vol % CO2 atmospheric conditions for one hour. Thereafter, fluorescence intensity of the medium was measured (Ex544 nm/Em590 nm) to evaluate cellular respiratory chain (growth) activity. […] The cells were lysed at 4° C. over 2 hours and dopa oxidase activity was measured. The activity measurement was performed by the following method based on the […] method (Winder A. et al., 1991, Eur. J. Biochem. 198: 317-326): to individual wells containing a cell lysate, the Assay Buffer (80 μL) as mentioned above, an aqueous 20.7 mM MBTH (3-methyl-2-benzothiazolinone hydrazone) solution (60 μL) and an aqueous 5 mM L-DOPA (L-dihydroxyphenylalanine) (40 μL) solution serving as a substrate were added, a reaction was performed at 37° C. for 30 minutes and the absorbance at a wavelength of 505 nm was measured. […]

LC3-II = test: Autophagy activity of epidermal keratinocytes (LC3-II accumulation with chloroquine diphosphate, Western blotting); type: cell-based, human; details: proguanil 0.3, 1, 3, 10 or 30 μM in presence of 10 μM chloroquine diphosphate, FIG. 18
[2] = test system: dopa oxidase activity of melanocytes; test: Dopa oxidase activity of melanocytes in melanocyte single culture system; type: cell-based, human; details: melanocytes (lightly and darkly); proguanil 0.1-1000 μM; 4 days; versus DMSO; FIGS. 14A, 14B
Method: Normal human neonatal foreskin-derived epidermal melanocytes (Human Epidermal Melanocytes, neonatal, lightly pigmented donor (HEMn-LP) and Human Epidermal Melanocytes, neonatal, darkly pigmented donor (HEMn-DP); melanocytes (lightly) and melanocytes (darkly)), a growth medium for epidermal melanocytes (Medium254) and a growth additive (HMGS) for the medium were purchased from Thermo Fisher Scientific. Melanocytes were cultured at 37° C. in 5 vol % CO2 atmospheric conditions.
Melanocytes (lightly and darkly) were seeded in 96-well plates at a cell density of 2×10^4 cells/well (100 μL/well). […] Thereafter, fluorescence intensity of the medium was measured (Ex544 nm/Em590 nm) to evaluate cellular respiratory chain (growth) activity. […] The cells were lysed at 4° C. over 2 hours and dopa oxidase activity was measured. The activity measurement was performed by the following method based on the […] method (Winder A. et al., 1991, Eur. J. Biochem. 198: 317-326): to individual wells containing a cell lysate, the Assay Buffer (80 μL) as mentioned above, an aqueous 20.7 mM MBTH (3-methyl-2-benzothiazolinone hydrazone) solution (60 μL) and an aqueous 5 mM L-DOPA (L-dihydroxyphenylalanine) (40 μL) solution serving as a substrate were added, a reaction was performed at 37° C. for 30 minutes and the absorbance at a wavelength of 505 nm was measured.

[3] = test system: melanocytes (HEMn-LP, HEMn-DP); test: Cellular respiratory chain (growth) activity, alamarBlue, melanocyte single culture system; type: cell-based, human; details: melanocytes (lightly and darkly); concentration range of 30 μM or less; 4 days; FIGS. 14C, 14D
Method: Melanocytes (lightly and darkly) were seeded in 96-well plates at a cell density of 2×10^4 cells/well (100 μL/well). […] As a control, the same amount of DMSO was added. After completion of culture, the whole medium was replaced (100 μL/well), a reagent, alamarBlue (Bio-Rad AbD Serotec Limited) was added so as to obtain a ratio of 10 μL/well. Incubation was carried out at 37° C. in 5 vol % CO2 atmospheric conditions for one hour. Thereafter, fluorescence intensity of the medium was measured (Ex544 nm/Em590 nm) to evaluate cellular respiratory chain (growth) activity.

human skin tissue [4] = test: Effect of proguanil on skin color of cultured human skin tissue; type: cell-based; details: proguanil 150, 180, 210, 240, 270 or 300 μM; Day 5; versus DMSO; FIG. 12
Method: A normal human skin tissue, which was obtained at the time of surgical operation, was provided by a medical college (department of plastic surgery). The human skin tissue, from which subcutaneous fat was previously trimmed, was cut into small pieces having a size of about 1 cm×1 cm by knife. The small pieces were cultured by using a 6-well plate at 37° C. under a 5 vol % CO2 atmospheric conditions. In the culture, Advanced DMEM medium containing a 10% (v/v) Fetal Bovine Serum (FBS) (Thermo Fisher Scientific, respectively) was used. A human skin tissue was allowed to stand still in a 6-well plate. Proguanil was added in the medium at a final concentration of 150, 180, 210, 240, 270 or 300 μM and then tissue culture was performed. As a control, DMSO was added in the same amount. Medium replacement was carried out every 2 to 3 days. Day 5 after initiation of the culture, the appearance of the skin tissue was observed and photographed.

human skin tissue [5] = test: Fontana-Masson staining of skin tissue cultured with proguanil; type: cell-based; details: proguanil 180 μM; 5 days; versus DMSO control; FIG. 13 upper stage
Method: The human skin tissue, from which subcutaneous fat was previously trimmed, was cut into small pieces having a size of about 1 cm×1 cm by knife. The small pieces were cultured by using a 6-well plate at 37° C. under a 5 vol % CO2 atmospheric conditions. In the culture, Advanced DMEM medium containing a 10% (v/v) Fetal Bovine Serum (FBS) (Thermo Fisher Scientific, respectively) was used. […] More specifically, the skin tissue was embedded in paraffin and the resultant paraffine block was sliced to prepare paraffin sections of 5 μm in thickness. A Fontana ammonia silver solution (manufactured by MUTO PURE CHEMICALS Co., Ltd.) was allowed to react at room temperature for two hours to visually distinguish melanin granules. Thereafter, nuclear staining was performed using Kernechtrot solution (manufactured by MUTO PURE CHEMICALS Co., Ltd.). […] At the same time, HE staining was carried out.

dopa oxidase activity [2]: did not accelerate dopa oxidase activity
SMILES: [H]/N=C(\N/C(=N/[H])Nc1ccc(Cl)cc1)NC(C)C [proguanil, 1-(p-chlorophenyl)-5-isopropyl biguanide]
dopa oxidase activity [1]: does not accelerate dopa oxidase activity
accumulation of LC3-II (LC3-II): the accumulation was reduced by proguanil in a concentration-dependent manner
cell toxicity (cellular respiratory chain activity) [3]: cell toxicity was not observed
darkening of the skin color (human skin tissue [4]): induces darkening of the skin color in a dose-dependent manner
deposition of melanin in the epidermis (human skin tissue [5]): melanin is accumulated in a wider range of the epidermis
